Results published in patent US20150283227A1, “SYNTHETIC ENV PROTEINS” (priority 2012, published 2015).
Like-named read-outs stand apart in the source and are kept apart here.

Key:
BnAb PG9 = assay type: binding, human; conditions: Example 5, peptides 200 μg/mL, glycans 25 μg/mL over captured PG9
Experimental: (§1) Each of the mAbs was captured on a human Fc specific IgG directly immobilized on a BIAcore CM5 sensor chip. Each of the V1/V2 peptides (3 min at 50 uL/min) was injected over the mAb captured surface and SPR binding was monitored on a BIAcore 3000 instrument. Non-specific binding of peptides was subtracted following measurement of signal on a surface with a control ant-RSV mab Synagis.
V1V2 glycopeptide binding Kd and rate constant measurements were carried out on a BIAcore 3000 instrument using an anti-human Ig Fc capture assay as described earlier (Alam, S. M.; McAdams, M.; Boren, D.; Rak, M.; Scearce, R. M.; Gao, F.; Camacho, Z. T.; Gewirth, D.; Kelsoe, G.; Chen, P.; Haynes, B. F. J. Immunol. 2007, 178, 4424-4435.). Anti-human IgG Fc antibody (Sigma Chemicals) was immobilized on a CM5 sensor chip to about 10000 response units (RU), and each antibody was captured to about 300 RU. Anti-RSV Synagis mAb was captured on the same sensor chip as a control surface. Non-specific binding and drift in signal was double referenced by subtracting binding to the control surface and blank buffer flow for each of the peptide binding interactions. All curve-fitting analyses were performed using global fit of multiple titrations to the 1:1 Langmuir model. All data analysis was performed using the BIAevaluation 4.1 analysis software (GE Healthcare).
V1V2 glycopeptide binding Kd and rate constant measurements were carried out on BIAcore 3000 instruments as described earlier (Alam et al, Immunol. 178(7):4424-4435 (2007), Alam et al, J. Virol. 82(1):115-125 (2008)). Anti-human IgG Fc antibody (Sigma Chemicals) was immobilized on either a CM3 or CM5 (CM3 for kinetics and Kd determination) sensor chip (to minimize non-specific binding of peptides to chip matrix) to about 5000 Resonance Unit (RU) and each antibody was captured to about 100-200 RU on individual flow cells, in addition to one flow cell with the control Synagis mAb on the same sensor chip. Non-specific binding of V1V2 glycopeptide was double-referenced by substracting the control surface and blank buffer flow for each mAb-V1V2 glycopeptide binding interaction. […] SPR curve fitting analysis was performed using global fit of multiple titrations to the 1:1 Langmuir model. All data analysis was performed using the BIAevaluation 4.1 analysis software (GE Healthcare).

BnAb CH01 = assay: SPR binding of V1V2 peptides/glycopeptides to captured mAb CH01; set-up: species or system human; conditions: glycans in the absence of the V2 peptide backbone
Experimental: as §1
Anti-human IgG Fc antibody (Sigma Chemicals) was immobilized on either a CM3 or CM5 (CM3 for kinetics and Kd determination) sensor chip (to minimize non-specific binding of peptides to chip matrix) to about 5000 Resonance Unit (RU) and each antibody was captured to about 100-200 RU on individual flow cells, in addition to one flow cell with the control Synagis mAb on the same sensor chip. Non-specific binding of V1V2 glycopeptide was double-referenced by substracting the control surface and blank buffer flow for each mAb-V1V2 glycopeptide binding interaction. […] SPR curve fitting analysis was performed using global fit of multiple titrations to the 1:1 Langmuir model. All data analysis was performed using the BIAevaluation 4.1 analysis software (GE Healthcare).

[1] = molecular target: Man3GlcNAc2 V1V2 glycopeptide, DMSO-oxidized disulfide-linked dimer (HIV-1 strain AE.CM244 (A244)); assay: SPR kinetics, mAb captured on anti-IgG, DMSO-oxidized dimer injected; 1:1 Langmuir
[2] = molecular target: Man5GlcNAc2 V1V2 glycopeptide, DMSO-oxidized disulfide-linked dimer (HIV-1 strain AE.CM244 (A244)); assay: as above

CC(=O)NC1C(O)OC(CO)[C@@H](O[C@@H]2OC(CO)[C@@H](O[C@@H]3OC(CO[C@H]4OC(CO[C@H]5OC(CO)[C@@H](O)[C@H](O)C5O)[C@@H](O)[C@H](O[C@H]5O[C@@H](CO)[C@@H](O)C(O)C5O)C4O)[C@@H](O)[C@H](O[C@H]4O[C@@H](CO)[C@@H](O)C(O)C4O)C3O)[C@H](O)C2NC(C)=O)[C@@H]1O (some centres unmarked) [Man5GlcNAc2 glycan alone, reference compound]
SPR binding to PG9 (BnAb PG9): minimal to no binding
SPR binding to PG9 (BnAb PG9; listed as Man5GlcNAc2 glycan): not detected
SPR binding to CH01 (BnAb CH01): not detected

CC(=O)N[C@H]1[C@H](O[C@H]2[C@H](O)[C@@H](NC(C)=O)C(O)O[C@@H]2CO)O[C@H](CO)[C@@H](O[C@@H]2O[C@H](CO[C@H]3O[C@H](CO[C@H]4O[C@H](CO)[C@@H](O)[C@H](O)[C@@H]4O)[C@@H](O)[C@H](O[C@H]4O[C@H](CO)[C@@H](O)[C@H](O)[C@@H]4O)[C@@H]3O)[C@@H](O)[C@H](O[C@H]3O[C@H](CO)[C@@H](O)[C@H](O)[C@@H]3O)[C@@H]2O)[C@@H]1O (some centres unmarked) [Man5GlcNAc2 glycan alone, reference compound]
SPR binding to PG9 (BnAb PG9): not detected

CC(=O)NC1C(O)OC(CO)[C@@H](O[C@@H]2OC(CO)[C@@H](O[C@@H]3OC(CO[C@H]4OC(CO)[C@@H](O)[C@H](O)C4O)[C@@H](O)[C@H](O[C@H]4O[C@@H](CO)[C@@H](O)C(O)C4O)C3O)[C@H](O)C2NC(C)=O)[C@@H]1O (stereo partly drawn) [Man3GlcNAc2 glycan alone, [α-D-mannopyranosyl-(1→3)]-[α-D-mannopyranosyl-(1→6)]-β-D-mannopyranosyl-(1→4)-2-deoxy-2-N-acetyl-β-D-glucopyranosyl-(1→4)-2-deoxy-2-N-acetyl-D-glucopyranoside, reference compound]
SPR binding to PG9 (BnAb PG9): minimal to no binding
SPR binding to PG9 (BnAb PG9; listed as Man3GlcNAc2 glycan): not detected
SPR binding to PG9 (BnAb PG9; listed as Man3GlcNAc2 oligosaccharide): not detected
SPR binding to CH01 (BnAb CH01): not detected

CH01 (antibody)
Kd [1]: 32.1 nM
koff [1]: 0.00032 s⁻¹
kon [1]: 9970 M⁻¹ s⁻¹
Kd [2]: 45.5 nM
koff [2]: 0.000302 s⁻¹
kon [2]: 6640 M⁻¹ s⁻¹
